One compound from patent US20240261333A1, “NOVEL TARGETS FOR ENHANCING ANTI-TUMOR IMMUNITY” (THE BROAD INSTITUTE, INC., priority 2021, published 2024) can be followed below.

What all share (assay type): cell-based, human
The test system of series [1] is A375 cells overexpressing B3GNT2. Nature of the series: Binding of recombinant T cell proteins to A375 cells, flow cytometry. The procedure: (§1) For glycosylation inhibition, cells were treated with 20 μg/mL Kifunensine (Cayman Chemical 10009437) or 2 mM Benzyl 2-acetamido-2-deoxy-alpha-D-galactopyranoside (BAG; Millipore Sigma B4894-100MG) for 48 h to inhibit N- and O-glycosylation respectively unless otherwise indicated. For MCL1 inhibition, cells were treated with 1-10 μM of S63845 (Selleck Chemicals S8383) or AZD5991 (Selleck Chemicals S8643) for 4 h before incubation with T cells. Both glycosylation and MCL1 inhibitors were maintained at indicated concentrations during co-culture with T cells.
Per condition, 5×10^5 cells were pelleted at 200×g for 5 min and washed once with PBS. Cell were fixed in 4% Formaldehyde in PBS at 4° C. for 10 mins. Cells were washed twice with PBS and resuspended in PBS with 25 μg/mL recombinant Fc chimera proteins [PVRIG (R&D Systems 9365-PV-050), CD226 (R&D Systems 666-DN-050), NKG2D (R&D 1299-NK-050), TREML2 (R&D Systems 3259-TL-050), CD2 (R&D Systems 1856-CD-050), CD96 (R&D Systems 9360-CD-050), TIGIT (BPS Bioscience 71186), CD27 (BPS Bioscience 71176), or 4-1BB (TNFRSF9; Sino Bio 10041-H03H)], 0.1 μg/mL HLA-A2:NY-ESO-1 Fab (Stewart-Jones et al., 2009), 5 μg/mL Fas antibody (Millipore Sigma 05-201), 25 μg/mL TNFRSF10B antibody (Novus Biologicals NB100-56618, 1:200), or Dylight 649 labeled Tomato Lectin (Vector Laboratories DL-1178, 1:100). Cells were incubated at 4° C. for 1 h. Cells were washed twice with PBS and resuspended in PBS with the appropriate secondary antibody [IgG Fc PE (Thermo Fisher Scientific 12-4998-82, 1:50), His Tag Alexa Fluor 647 (Thermo Fisher Scientific MA121315A647), mouse Alexa Fluor 568 (Thermo Fisher Scientific A-11031), or rabbit Alexa Fluor 647 (Thermo Fisher Scientific A-21244)]. Cells stained with Tomato Lectin were not incubated with additional secondary antibodies. […] For each sample, 10,000 cells were analyzed on a CytoFLEX Flow Cytometer (Beckman Coulter) and quantified with FlowJo (FlowJo). For each experiment, median fluorescence values for 3 biological replicates were compared to determine statistical significance.
Background: In flow cytometry, cells or beads pass a laser one at a time.

Series [2] has as its system SW1417 (HER2+) colorectal adenocarcinoma cells. Nature of the series: T cell cytotoxicity assay, SW1417 against HER2 CAR T cells. The conditions noted are these: SW1417 treated with small molecule inhibitor. The method, then: (§2) Expanded T cells were thawed and maintained in culture media for 8-10 h before incubation with cancer cells. Cancer cells were seeded in 96-well plates and allowed to attach for 3-4 h before T cells were added at the appropriate effector to target cell (E:T) ratio. Paired controls with no T cells added were included for each condition. After 18 h, cancer cells were washed twice with PBS to remove T cells, passaged, and cultured for 2 days. Primary patient-derived cell models were not passaged after T cell co-culture. Viability was measured using CellTiter-Glo (Promega G7571). For each E:T ratio, percent survival was calculated as viability of the cells incubated with T cells divided by viability of the paired control that was not incubated with T cells. For example, CD274-overexpressing melanoma cells that were co-cultured with ESO T cells were compared to CD274-overexpressing melanoma cells that were cultured without T cells in parallel. As an alternative cytotoxicity assay, A375 cells stably expressing Gaussia luciferase were co-cultured with ESO T cells. At each time point, 10% of cell culture media was used for the Gaussia luciferase assay (Targeting Systems GAR-2B) to directly measure cytotoxicity. […]

The subject of series [3] is ESO T cells co-cultured with A375 cells. In words: IFNγ ELISA in culture media of the T cell cytotoxicity assay. The note with it: B3GNT2-overexpressing A375 pretreated with inhibitor, E:T ratio of 3; kifunensine having a stronger effect. The method, then:
Expanded T cells were thawed and maintained in culture media for 8-10 h before incubation with cancer cells. Cancer cells were seeded in 96-well plates and allowed to attach for 3-4 h before T cells were added at the appropriate effector to target cell (E:T) ratio. Paired controls with no T cells added were included for each condition. After 18 h, cancer cells were washed twice with PBS to remove T cells, passaged, and cultured for 2 days. Primary patient-derived cell models were not passaged after T cell co-culture. Viability was measured using CellTiter-Glo (Promega G7571). For each E:T ratio, percent survival was calculated as viability of the cells incubated with T cells divided by viability of the paired control that was not incubated with T cells. […]
To challenge cells with cytokines, cells were incubated with Interferon-γ (IFNγ; Cell Signaling Technology 80385S), FasL (AdipoGen AG-40B-0130-3010), TRAIL (R&D Systems 375-TL-010), or TNF-α (AdipoGen AG-40B-0019-3010) for 24 h. […] Cell viability was measured using CellTiter-Glo (Promega G7571) and protein was harvested for Western blots. […] IFNγ in the cell culture media of the T cell cytotoxic assay was quantified using an ELISA kit (Thermo Fisher Scientific KHC4021). […]
(In an ELISA, binding on a coated surface is turned into a signal by an enzyme label.)

The test system of series [4] is CCLF_PANC_0014_T primary patient-derived pancreatic adenocarcinoma. In words: T cell cytotoxicity assay, primary patient-derived pancreatic adenocarcinoma against HER2 CAR T cells. The note with it: CCLF_PANC_0014_T treated with small molecule inhibitor. The method, then:
as §2

The subject of series [5] is A375 cells overexpressing B3GNT2. Nature of the series: Intra- and extra-cellular poly-LacNAc by tomato lectin staining, flow cytometry. The note with it: A375 overexpressing B3GNT2, pretreated with different concentrations of inhibitor. The method, then:
as §1
Per condition, 5×10^5 cells were pelleted at 200×g for 5 min and washed once with PBS. Cell were fixed in 4% Formaldehyde in PBS at 4° C. for 10 mins. […] For each sample, 10,000 cells were analyzed on a CytoFLEX Flow Cytometer (Beckman Coulter) and quantified with FlowJo (FlowJo). For each experiment, median fluorescence values for 3 biological replicates were compared to determine statistical significance.

Regarding `O=C1N[C@@H]2[C@@H](O)[C@@H](O)[C@H](O)[C@@H](CO)N2C1=O` [kifunensine], the “Binding of recombinant T cell proteins to A375 cells” value in series [1] (B3GNT2-overexpressing A375 treated with inhibitor, CD2, 4-1BB, TREML2, NKG2D) was “rescued the reduction in T cell protein binding”. For the same compound, in series [1] (B3GNT2-overexpressing A375 treated with kifunensine), the “HLA-A2:NY-ESO-1 antibody binding to A375 cells” value is given as “further reduced binding”. Moreover, the “Cell survival against T cell cytotoxicity, SW1417” value in series [2] is listed as “reduced survival”. For the same compound, the “T cell IFNγ secretion” value in series [3] is recorded as “increased T cell IFNγ secretion”. Moreover, the “Cell survival against T cell cytotoxicity, primary patient-derived pancreatic adenocarcinoma model” value in series [4] is “reduced survival”. Moreover, the “poly-LacNAc measured by tomato lectin staining” value in series [5] is listed as “reduced poly-LacNAc added by B3GNT2 in a dosage-dependent manner”.
